“And” between values parts separate entries of the source, which are not always exact repeats. Equal values may be shown once. Read-outs that look alike come from different tables or passages of the source.
Experiments:
[1] = target: T1, hCA-IX (catalytic domain) (Homo sapiens, UniProt Q16790); experiment: Thermal shift assay (TSA / differential scanning fluorimetry); format: binding; details: for ΔTm, median: at 40 µM compound, n = 4
[2] = target: T1, hCA-IX (catalytic domain); experiment: hCA esterase activity inhibition assay (p-nitrophenyl acetate hydrolysis) with IC50 determination; format: biochemical
Description: (§1) The catalytic activity of hCA-II and hCA-IX was monitored through the enzymatic hydrolysis of p-nitrophenyl acetate. […]
(§2) hCA esterase activity inhibition screening assay (with IC50 determination) The protocol was adapted from the work by Wu and co-authors.3 Briefly, the catalytic activity of human hCA-IX (catalytic domain) and hCA-II recombinant proteins was monitored by following the hydrolysis of p-nitrophenyl […]
(§3) prepared in DMSO) as a reference compound, were titrated from 200 µM to 0.01 µM at 3× serial dilutions (10-point […]
(§4) HCl, 200 mM NaCl, pH 7.5), and aliquoted into the assay-ready plates with tested compounds immediately prior to the analysis using an automated multichannel dispenser Multidrop Combi (Thermo Fischer Scientific).
(§5) The products of the hydrolysis reaction are acetate and nitrophenolate, which ionizes to give a bright yellow anion […]
(§6) The compounds were formatted into 384-well plates in the following manner. The first two columns (n = 32 wells) […]
(§7) In between, the tested compounds were placed at the defined dilution step of the 10-points concentration curve, each point of which was a quadruplicate (n = 4 wells). Thus, the […]
(§8) deviation of <0.05, were used for further assessment of each point of inhibition curves; they were not shown in the […]
(§9) performed with Labcyte Echo liquid handler to prepare assay-ready plates. Reaction was run in 25 µL of assay buffer […]
(§10) Enzymatic reactions were initiated by pipetting 5 mM stock solution of 4-nitrophenyl acetate (4-NPA) in ethanol to each well (final concentration in the reaction mixture – 0.5 mM for hCA-II and 0.9 mM for hCA-IX). The final reaction volume was 27.5 µL. The enzyme activity was evaluated by monitoring the production of colored product, 4- […]
(§11) SpectraMax M5 (Molecular Devices). The assay was performed twice for each enzyme.
(§12) Each data point of the titration curve was calculated as average of aggregate data value of four measurements per each concentration (technical replicate for each concentration n = 4). The IC50 values were calculated using GraphPad […]
(§13) for maximum inhibition of the enzyme (as described above) and apply this value for further calculation of the percent […]
(§14) Secondly, it was also titrated as one of the tested compounds to ensure that the assay is performing properly withing the given range of the known inhibitor […]
(§15) compounds in Figures S4 and S5.

hCA-II = target: T2, hCA-II (Homo sapiens, UniProt P00918); experiment: as above; format: biochemical
T2 construct: recombinant hCA-IX (catalytic domain) and hCA-II (full-length protein); made in house; host or cells: E. coli
Description: as §1, §2, §3, §4, §5, §6, §7, §8, §9, §10, §11, §12, §13, §14, §15

[3] = target: hCA-II (full-length protein) (Homo sapiens, UniProt P00918); experiment: Thermal shift assay (TSA / differential scanning fluorimetry); details: for Tm: hCA-II
[4] = 917 nM hCA-IX, 4-NPA, 10-point curve, n = 4, read-out: IC50
[5] = 200 nM hCA-II, 0.5 mM 4-NPA, 10-point curve, n = 4, read-out: IC50
[6] = hCA-IX, bound stated, read-out: potency (IC50)
[7] = hCA-II, bound stated, read-out: potency (IC50)

SMILES | ΔTm, median [1] [°C] | Tm ([1]; screening at 20 µM) [°C] | ΔTm ([1]; screening at 20 µM) [°C] | Tm ([1]; screening at 40 µM) [°C] | IC50 [2, 4] | IC50 (hCA-II; [5]) | Tm ([3]; screening at 20 µM) [°C] | Tm ([3]; screening at 40 µM) [°C] | ΔTm at 20 µM ([3]; read-out: ΔTm) [°C] | ΔTm at 40 µM ([3]; read-out: ΔTm) [°C] | IC50 ([2]; 917 nM hCA-IX, 4-NPA, 10-point curve, n = 4, listed as 4(16,7,28), read-out: IC50) [µM] | IC50 [2, 6] [µM] | IC50 (hCA-II; [7]) [µM] | ΔTm at 40 µM ([3]; read-out: ΔTm, median) [°C] | ΔTm ([1]; screening at 40 µM) [°C]
O=C(NS(=O)(=O)c1ccc(-c2cn(CC3COc4ccccc4O3)nn2)cc1)c1cnsc1 (stereo not drawn) [4{17,7,27}] | 1.44 | 56.91 | 1.28 | 57.51 | 23.4 µM | 6.1 µM and 6.07 µM | 54.82 | 54.73 | 0.5 | 0.21 | – | – | – | – | –
Cc1cc(C(=O)NS(=O)(=O)c2cccc(-n3cc(-c4ccc5nonc5c4)nn3)c2)on1 [7{2,21,60}] | 1.17 | 55.81 | 0.18 | 57.23 | 17.3 µM | 8.7 µM and 8.74 µM | 55.24 | 55.22 | 0.92 | 0.7 | – | – | – | – | –
Cc1cc(C(=O)NS(=O)(=O)c2ccc(-c3cn(CCN(C)Cc4cccc(F)c4)nn3)cc2)ccn1 [4{16,7,28}] | 1.18 | 56.77 | 1.14 | 57.24 | 7.13 µM | 1.7 µM | 54.35 | 51.97 | 0.03 | – | 7.1 | < 10 | < 10 | -2.55 | –
COCC(=O)NS(=O)(=O)c1ccc(-c2cn(CCN(C)Cc3cccc(F)c3)nn2)cc1 [4{16,7,19}] | – | 56.80 | 1.17 | 56.98 | 1.1 µM and 1.11 µM | 0.2 µM | 51.10 | 49.58 | -3.22 | – | – | < 10 | < 10 | -4.95 | 0.92

Source: publication PMC12844257, “Click Chemistry-Enabled Parallel Synthesis of N-Acyl Sulfonamides and Their Evaluation as Carbonic Anhydrase Inhibitors” (Molecules, 2026)
